From article PMC5253108 (European journal of medicinal chemistry, 2016)

Assays:
[1] = In vitro liver microsomal stability; assay type: in vitro ADME, mouse; conditions: for metabolically converted after one hour: corresponds to mouse liver microsome values of Table 1
HEK293 kidney cells = assay type: cell-based; conditions: 48 hours, Cell-Titer Glo
HepG2 liver cells = experiment: In vitro cytotoxicity, Cell-Titer Glo viability, HepG2; assay type: cell-based; conditions: 48 hours
[2] = system: BEAS2B lung epithelial cells; experiment: In vitro cytotoxicity, Cell-Titer Glo viability, BEAS2B; assay type: cell-based; conditions: 48 hours
Swiss Webster mice = experiment: Rotarod assay of sensorimotor coordination in mice; conditions: for sensorimotor impairment on rotarod: 40 mg/kg i.p., Swiss Webster mice, 10, 30 and 60 min
[3] = In vitro liver microsomal stability; assay type: in vitro ADME; conditions: human, microsomes
[4] = Solubility in rotarod vehicle; conditions: 50% PBS, 40% propylene glycol, 10% DMSO; for 40 mg/kg i.p. dosing
[5] = Solubility at 10 µM in PBS with 1% DMSO; assay type: physicochemical; conditions: aqueous buffer, kinetic from dmso stock

| Structure (SMILES) | loss at 1 h in mouse liver microsomes [1] | Toxicity in HEK293 (Kidney) LD50 (HEK293 kidney cells) [µM] | Toxicity in HEPG2 (Liver) LD50 (HepG2 liver cells) [µM] | Toxicity in BEAS 2B (Lung) LD50 [2] [µM] | sensorimotor impairment on rotarod (Swiss Webster mice) | metabolically converted after one hour [1] [%] | remaining at 1 h [3] [%] | solubility in the vehicle [4] | solubility [5] [µM] | toxicity in HEK293 cells (HEK293 kidney cells) | sensorimotor impairment on rotarod, positive control (Swiss Webster mice; 5 mg/kg i.p., Swiss Webster mice) |
| --- | --- | --- | --- | --- | --- | --- | --- | --- | --- | --- | --- |
| [2H]C([2H])([2H])Oc1ccc2c(c1)C(=O)N1CCC[C@H]1c1c(C(=O)OCC)ncn1-2 [Compound 5a] | less than 20% | >400 | >400 | >400 |  |  |  |  |  |  |  |
| CCOC(=O)c1ncn2c1[C@@H]1CCCN1C(=O)c1cc(O)ccc1-2 [Compound 6] | less than 20% |  | >400 | >400 | did not induce sensorimotor impairment |  |  |  |  |  |  |
| [2H]C([2H])([2H])Oc1ccc2c(c1)C(=O)N1CCC[C@H]1c1c(C(=O)OC(C)(C)C)ncn1-2 [Compound 7a] |  | >100 | >400 | >200 |  |  |  |  |  |  |  |
| CC(C)(C)OC(=O)c1ncn2c1[C@@H]1CCCN1C(=O)c1cc(O)ccc1-2 [Compound 8] |  |  | >400 | >400 |  |  |  |  |  |  |  |
| [2H]C([2H])([2H])Oc1ccc2c(c1)C(=O)N1CCC[C@H]1c1c(C(=O)O)ncn1-2 [Compound 9a] | less than 20% | >400 | >400 | >400 | did not induce sensorimotor impairment |  |  |  |  |  |  |
| COC(=O)c1ncn2c1[C@@H]1CCCN1C(=O)c1cc(OC)ccc1-2 [Compound 10, (S)-Methyl-7-methoxy-9-oxo-11,12,13,13a-tetrahydro-9H-benzo[e]imidazo[5,1-c]pyrrolo[1,2-a][1,4]diazepine-1-carboxylate] |  | >400 | >400 | >400 | did not induce any sensorimotor impairment | 30 |  |  |  |  |  |
| [2H]C([2H])([2H])Oc1ccc2c(c1)C(=O)N1CCC[C@H]1c1c(C(=O)OC)ncn1-2 [Compound 10a] | less than 20% | >400 | >400 | >400 | most severe motor impairment | 15 |  |  |  |  |  |
| COc1ccc2c(c1)C(=O)N1CCC[C@H]1c1c(C(=O)OCC(C)C)ncn1-2 [Compound 11, (S)-Isobutyl-7-methoxy-9-oxo-11,12,13,13a-tetrahydro-9H-benzo[e]imidazo[5,1-c]pyrrolo[1,2-a][1,4]diazepine-1-carboxylate] |  | >100 | >200 | >200 |  |  | < 80 | not soluble in the vehicle |  |  |  |
| [2H]C([2H])([2H])Oc1ccc2c(c1)C(=O)N1CCC[C@H]1c1c(C(=O)OCC(C)C)ncn1-2 [Compound 11a] |  | >100 | >200 | >200 | most severe motor impairment |  | < 80 |  |  |  |  |
| COc1ccc2c(c1)C(=O)N1CCC[C@H]1c1c(C(=O)OC(C(F)(F)F)C(F)(F)F)ncn1-2 [Compound 12] |  | >200 | >400 | >400 |  |  |  | not soluble in the vehicle | < 10 |  |  |
| [2H]C([2H])([2H])Oc1ccc2c(c1)C(=O)N1CCC[C@H]1c1c(C(=O)OC(C(F)(F)F)C(F)(F)F)ncn1-2 [Compound 12a] |  | >200 | >400 | >400 |  |  | < 80 | not soluble in the vehicle |  |  |  |
| CCSC(=O)c1ncn2c1[C@@H]1CCCN1C(=O)c1cc(OC)ccc1-2 [Compound 13] |  | >100 | >100 | >100 |  |  |  | not soluble in the vehicle | < 10 |  |  |
| [2H]C([2H])([2H])Oc1ccc2c(c1)C(=O)N1CCC[C@H]1c1c(C(=O)SCC)ncn1-2 [Compound 13a] |  | >100 | >100 | >100 |  |  |  | not soluble in the vehicle | < 10 |  |  |
| COc1ccc2c(c1)C(=O)N1CCC[C@H]1c1c(C(=O)SC(C)(C)C)ncn1-2 [Compound 14] |  | 18.8 ± 2.4 | >100 | >100 |  |  |  | not soluble in the vehicle | < 10 |  |  |
| [2H]C([2H])([2H])Oc1ccc2c(c1)C(=O)N1CCC[C@H]1c1c(C(=O)SC(C)(C)C)ncn1-2 [Compound 14a] |  | 16.8 ± 2.0 | >100 | >100 |  |  |  | not soluble in the vehicle | < 10 |  |  |
| CNC(=O)c1ncn2c1[C@@H]1CCCN1C(=O)c1cc(OC)ccc1-2 [Compound 15] |  | >100 | >400 | >400 | most severe motor impairment |  |  |  |  |  |  |
| [2H]C([2H])([2H])Oc1ccc2c(c1)C(=O)N1CCC[C@H]1c1c(C(=O)NC)ncn1-2 [Compound 15a] |  | >100 | >400 | >400 |  |  |  |  |  |  |  |
| [2H]C([2H])([2H])Oc1ccc2c(c1)C(=O)N1CCC[C@H]1c1c(C(=O)N(C)C)ncn1-2 [Compound 16a] | less than 20% | >400 | >400 | >400 | did not induce sensorimotor impairment |  |  |  |  |  |  |
| CCNC(=O)c1ncn2c1[C@@H]1CCCN1C(=O)c1cc(OC)ccc1-2 [Compound 17] |  | >400 | >400 | >400 |  |  |  |  |  |  |  |
| [2H]C([2H])([2H])Oc1ccc2c(c1)C(=O)N1CCC[C@H]1c1c(C(=O)NCC)ncn1-2 [Compound 17a] | less than 20% |  | >400 |  | did not induce sensorimotor impairment |  |  |  |  |  |  |
| COc1ccc2c(c1)C(=O)N1CCC[C@H]1c1c(C(=O)NC(C)(C)C)ncn1-2 [Compound 18] |  | >200 | >400 | >400 |  |  |  |  |  |  |  |
| [2H]C([2H])([2H])Oc1ccc2c(c1)C(=O)N1CCC[C@H]1c1c(C(=O)NC(C)(C)C)ncn1-2 [Compound 18a] |  |  | >400 |  | most severe motor impairment |  |  |  |  |  |  |
| COc1ccc2c(c1)C(=O)N1CCC[C@H]1c1c(C(=O)NC3CC3)ncn1-2 [Compound 19] | less than 20% | >200 | >400 | >400 |  |  | < 80 |  |  | some toxicity |  |
| [2H]C([2H])([2H])Oc1ccc2c(c1)C(=O)N1CCC[C@H]1c1c(C(=O)NC3CC3)ncn1-2 [Compound 19a] | less than 20% |  | >400 |  |  |  |  |  |  | some toxicity |  |
| CN1C(=O)CN=C(c2ccccc2)c2cc(Cl)ccc21 [diazepam, reference compound] |  |  |  |  |  |  |  |  |  |  | greatest impairment of sensorimotor steadiness at 10 minutes |
